Test system: MC38 colon carcinoma cells
Experiment: Syngeneic MC38 tumor model (tumor volume monitoring)
Assay type: in vivo, C57/BL6 mice
Conditions: MCT4 inhibitor 30 mg/kg p.o. qd, bintrafusp alfa 492 μg/animal i.v. day 0, 3, 6; for % T/C: Day 20, versus Group 1 control (vehicle + mutant non-binding anti-PD-L1 antibody); for reduction of tumor growth: MC38 tumor-bearing C57/BL6 mice, study end day 20
Procedure: MC38 colon carcinoma cells were obtained from Scripps Research Institute. Cells were tested and verified to be free of adventitious viruses and mycoplasma.
MC38 cells were cultured in DMEM containing 4.5 g/L D-glucose, 2 mM glutamine, and 110 mg/L sodium pyruvate and supplemented with 10% FBS. All cells were maintained at 37° C. and 5% CO2 in aseptic conditions. Cells were passaged upon reaching 50-85% confluence for a total of 2 to 15 passages prior to in vivo implantation. Cells were harvested by trypsinization with TrypLE Express and viable cell counts were determined using a Countess or […] cell counter and trypan blue exclusion staining.
Female C57/BL6 mice were obtained from Charles River Laboratories. They were inoculated (s.c. in the right dorsal flank) with 1×10^6 MC38 cells in 0.1 mL sterile PBS. Treatment was initiated when tumors reached an average volume of approximately 50-80 mm^3 (Day 0).
Test groups of the MC38 tumor-bearing mice (8 animals in each group) were treated with both vehicle (20% Kleptose (HPB) in 50 mM Phosphate pH 7.4 buffer) and a mutant, non-binding anti-PD-L1 antibody (Group 1, control), the MCT4 inhibitor described as Compound 367 in WO 2020/127960 (5-{2-[5-chloro-2-(5-ethoxyquinoline-8-sulfonamido)phenyl]ethynyl}-4-methoxypyridine-2-carboxylic acid; commercially available from, e.g., Selleck Chemicals) (Group 2), bintrafusp alfa (Group 3), or a combination of Compound 367 and bintrafusp alfa (Group 4). In Group 1 (Control Group) the vehicle was administered at 10 ml/kg animal weight, p.o. once daily and Mut PD-L1 i.v. at day 0, 3, and 6 (400 μg/animal). In Groups 2 and 4 the MCT4 inhibitor was administered at 30 mg/kg animal weight (p.o. administration, once per day (qd)). In Groups 3 and 4 bintrafusp alfa was administered 492 μg/animal at day 0, 3, and 6 (i.v. administration). At day 20 the study was terminated. Efficacy of the treatment was evaluated by monitoring tumor volume over the course of the study.

Row | Molecule | % T/C | reduction of tumor growth
1 | CCOc1ccc(S(=O)(=O)Nc2ccc(Cl)cc2C#Cc2cnc(C(=O)O)cc2OC)c2ncccc12 [MCT4 inhibitor, 5-{2-[5-chloro-2-(5-ethoxyquinoline-8-sulfonamido)phenyl]ethynyl}-4-methoxypyridine-2-carboxylic acid] | 79.1% | 20%
2 | bintrafusp alfa: anti-PD-L1:TGFβRII fusion protein, CAS 1918149-01-5; light chain SEQ ID NO: 7, heavy chain SEQ ID NO: 8 | 79.7% | 20%

From patent publication US20240050563A1, “Combination Treatment of Cancer” (Ares Trading S.A., priority 2020, published 2024)
